Results as given in patent US20040265940A1, “Amperometer sensor” (priority 2001, published 2004).
Read-outs that look alike come from different tables or passages of the source.

Assays:
[1] = cited from earlier work; for Solubility: values obtained from SRC PhysProp Database
[2] = Potential of oxidation peak at a glassy carbon electrode; type: physicochemical; conditions: pH 6.95 bis-tris buffer, Ag/AgCl/sat. KCl reference electrode
[3] = versus SCE; cited from earlier work

Eox (potential of oxidation peak) [2]	Compound	solubility in water ([1]; in water at 25° C.)	Solubility [1]	solubility in water ([1]; in water at 18° C.)	oxidation potential [3]
158 mV	COC1=CC(=O)C=C(CO)C1=O [2-hydroxymethyl-6-methoxy-1,4-benzoquinone]	–	–	–	–
229 mV	O=C1C=CC(=O)C(c2ccccc2)=C1 [Phenyl-1,4-benzoquinone]	1135 mgL^−1	1.14 E+03 (SRC) mg/L	–	–
156 mV	COC1=C(OC)C(=O)C(C)=CC1=O [2,3-dimethoxy-5-methyl-1,4-benzoquinone]	11,000 mgL^−1	1.11 E+04 (SRC) mg/L	–	–

Second part, the compound before the results:

Compound	Eox (potential of oxidation peak) [2]	solubility in water ([1]; in water at 25° C.)	Solubility [1]	solubility in water ([1]; in water at 18° C.)	oxidation potential [3]
COC1=CC(=O)C=C(OC)C1=O [2,6-dimethoxy-1,4-benzoquinone]	166 mV	70,600 mgL^−1	7.06 E+04 (SRC) mg/L	–	–
CC1=C(C)C(=O)C(C)=C(C)C1=O [Tetramethyl-1,4-benzoquinone]	−37 mV	443 mgL^−1	4.43 E+02 (SRC) mg/L	–	–
CC1=CC(=O)C=C(C)C1=O	137 mV	7888 mgL^−1	7.88 E+03 (SRC) mg/L	–	–
O=C1C=CC(=O)C=C1 [1,4-benzoquinone, reference compound]	278 mV	–	1.11 E+04 (SRC) mg/L	11,000 mgL^−1	approximately +400 mV
